Earlier results, collected in US20210169075A1, “ANTIBIOFILM FORMULATIONS AND METHODS FOR MICROBIAL DECONTAMINATION” (priority 2019, published 2021).
Values after ≈ are worked out from the molar mass of the structure shown.

Conditions: aqueous

solubility concentration: 4.09 µg/mL (≈ 30 µM)
SMILES: C=CC(=C)CCC=C(C)C [Myrcene, myrcene]
